# System: Rhinovirus infection
# Experiment: Treatment of a rhinovirus infection (common cold) in a patient
# Type: in vivo, human
# Conditions: 50 mg orally in a water solution, after 15 minutes
# Experimental: A patient with a common katarrhalic infection (common cold) was treated orally with 50 mg of (2RS,4R)-2-[3-Hydroxy-5-(hydroxymethyl)-2-methyl-4-pyridinyl]-4-thiazolidine carboxylic acid in a water solution. After 15 minutes the disease symptoms disappeared.
smiles,measurement,value
"Cc1ncc(CO)c(C2N[C@H](C(=O)O)CS2)c1O (mixture of isomers) [(2RS,4R)-2-[3-Hydroxy-5-(hydroxymethyl)-2-methyl-4-pyridinyl]-4-thiazolidine carboxylic acid]",disease symptoms of common katarrhalic infection (common cold),disappeared

# Reference: US6369042B1, “Antioxidative vitamin B6 analogs” (priority 1999, dated 2002)
